Measurements from patent US20210347794A1, “Phosphate Derivatives of Indole Compounds and Their Use” (ARIAGEN, INC., priority 2018, published 2021).

How the values were obtained:
[1] = In vivo pharmacokinetic study in rats, IV or oral dose of ARI-160
Description: This example describes pharmacokinetic (PK) studies of ARI-158 and ARI-160 in dogs and rats, respectively. In the present studies, the test compounds were given to groups of male beagle dogs and rats (N=3 in each group) intravenously (IV) at 2 mg/kg or orally (PO) at 10 mg/kg. IV doses were formulated in DMSO, while PO doses were formulated in a 50/50 mixture of PEG400 and Tween 80. Blood samples were collected at pre-dose and over a period of 24 hours post-dose. Plasma concentrations of the indolo-phosphoramidate compounds were determined by HPLC.

[2] = tested on: EMT-6 cancer cells; assay: Anti-tumor activity in EMT-6 syngeneic mouse tumor model; assay type: in vivo; conditions: 80 mpk
Description: This example describes in vivo studies that evaluated the anti-cancer efficacy of ARI-158 and ARI-160 in syngeneic mouse tumor models. Mice implanted subcutaneously with EMT-6 cancer cells were treated with ARI-158 and ARI-160, or vehicle controls, as described below.
A monolayer culture of tumor cells was maintained in vitro in DMEM or RPMI1640 medium supplemented with 10% fetal bovine serum at 37° C. in an atmosphere of 5% CO2. Cells in exponential growth phase were harvested and quantitated by cell counter before tumor inoculation.
EMT-6 syngeneic mouse tumor models were generated by inoculating female BALB/C 6 mice with EMT-6 cancer cells at their right lower flank.
Each mouse was inoculated subcutaneously with tumor cells in 0.1 mL of PBS. Treatments were started when the mean tumor size reached approximately 80-120 mm^3 (around 100 mm^3). The administration of the test compounds and the animal number in each study group are shown in the study design. The date of tumor cell inoculation was denoted as day 0.
ARI-158 and ARI-160 were dissolved in DMSO at the final concentration of 26.7 mg/ml and stored at room temperature.
Randomization of animals was started when the mean tumor size reached approximately 90 mm^3 to form the mouse study groups. The randomization was performed based on “Matched distribution” method using the multi-task method (StudyDirector™ software, version 3.1.399.19)/randomized block design. […]
Tumor volumes were measured twice per week in two dimensions using a caliper, and the volume was expressed in mm^3 using the formula: […]
where V is tumor volume, L is tumor length (the longest tumor dimension) and W is tumor width (the longest tumor dimension perpendicular to L). Dosing as well as tumor and body weight measurements was conducted in a Laminar Flow Cabinet. The body weights and tumor volumes were measured by using StudyDirector™ software (version 3.1.399.19).
Tumor growth inhibition percentage (TGI %) is an indicator for antitumor activity of a drug compound, and expressed as: […]
where T and C are the mean tumor volume (or weight) of the treated and control groups, respectively, on a given day. Statistical analysis of the difference in mean tumor volume (MTV) among the groups was conducted using the data collected on the day when the MTV of the vehicle group reached the humane endpoints, so that TGI could be derived for all or most mice enrolled in the study.

[3] = IV 2 mg/kg ARI-160, Animal_ID 1
[4] = IV 2 mg/kg ARI-160, Animal_ID 2
[5] = IV 2 mg/kg ARI-160, Animal_ID 3
[6] = PO 10 mg/kg ARI-160, Animal_ID 4
[7] = PO 10 mg/kg ARI-160, Animal_ID 5
[8] = PO 10 mg/kg ARI-160, Animal_ID 6

Question: Which AUCinf [1, 3] does the source give for `CCC(=O)c1csc(C(=O)c2cn(COP(=O)([O-])[O-])c3cc(F)ccc23)n1.[Na+].[Na+]` [ARI-160] here?
Answer: 5140 ng·h/mL

Question: What about the AUClast [1, 3] of the same molecule?
Answer: 5120 ng·h/mL

Question: What about the Cl [1, 3] of the same molecule?
Answer: 6.48 mL/min/kg

Question: And the Cmax [1, 3]?
Answer: 16100 ng/mL

Question: What about the MRTinf [1, 3] of the same molecule?
Answer: 13.8 min

Question: What about the MRTlast [1, 3] of the same molecule?
Answer: 12.6 min

Question: And the Tmax [1, 3]?
Answer: 4.98 min

Question: And the T½ [1, 3]?
Answer: 37.2 min

Question: What about the Vss [1, 3] of the same molecule?
Answer: 0.0898 L/kg

Question: What about the AUCinf [1, 4] of the same molecule?
Answer: 3950 ng·h/mL

Question: What about the AUClast [1, 4] of the same molecule?
Answer: 3930 ng·h/mL

Question: What about the Cl [1, 4] of the same molecule?
Answer: 8.43 mL/min/kg

Question: And the Cmax [1, 4]?
Answer: 12100 ng/mL

Question: What about the MRTinf [1, 4] of the same molecule?
Answer: 15.6 min

Question: What about the MRTlast [1, 4] of the same molecule?
Answer: 13.8 min

Question: What about the Tmax [1, 4] of the same molecule?
Answer: 4.98 min

Question: And the T½ [1, 4]?
Answer: 51.6 min

Question: And the Vss [1, 4]?
Answer: 0.132 L/kg

Question: What about the AUCinf [1, 5] of the same molecule?
Answer: 8590 ng·h/mL

Question: And the AUClast [1, 5]?
Answer: 8590 ng·h/mL

Question: What about the Cl [1, 5] of the same molecule?
Answer: 3.88 mL/min/kg

Question: And the Cmax [1, 5]?
Answer: 24600 ng/mL

Question: What about the MRTinf [1, 5] of the same molecule?
Answer: 10.8 min

Question: And the MRTlast [1, 5]?
Answer: 10.8 min

Question: What about the Tmax [1, 5] of the same molecule?
Answer: 4.98 min

Question: And the T½ [1, 5]?
Answer: 54 min

Question: What about the Vss [1, 5] of the same molecule?
Answer: 0.042 L/kg

Question: And the AUCinf ([1]; IV 2 mg/kg ARI-160, Mean)?
Answer: 5890 ng·h/mL

Question: And the AUClast ([1]; IV 2 mg/kg ARI-160, Mean)?
Answer: 5880 ng·h/mL

Question: What about the Cl ([1]; IV 2 mg/kg ARI-160, Mean) of the same molecule?
Answer: 6.27 mL/min/kg

Question: And the Cmax ([1]; IV 2 mg/kg ARI-160, Mean)?
Answer: 17600 ng/mL

Question: What about the MRTinf ([1]; IV 2 mg/kg ARI-160, Mean) of the same molecule?
Answer: 13.2 min

Question: And the MRTlast ([1]; IV 2 mg/kg ARI-160, Mean)?
Answer: 12.6 min

Question: And the Tmax ([1]; IV 2 mg/kg ARI-160, Mean)?
Answer: 4.98 min

Question: What about the T½ ([1]; IV 2 mg/kg ARI-160, Mean) of the same molecule?
Answer: 47.4 min

Question: What about the Vss ([1]; IV 2 mg/kg ARI-160, Mean) of the same molecule?
Answer: 0.0878 L/kg

Question: And the bioavailability ([1]; IV versus oral dosing)?
Answer: better bioavailability with an IV dosing

Question: What about the AUCinf [1, 6] of the same molecule?
Answer: 23.3 ng·h/mL

Question: What about the AUClast [1, 6] of the same molecule?
Answer: 13.3 ng·h/mL

Question: And the Cmax [1, 6]?
Answer: 12.7 ng/mL

Question: What about the MRTinf [1, 6] of the same molecule?
Answer: 139 min

Question: What about the MRTlast [1, 6] of the same molecule?
Answer: 51.8 min

Question: What about the Tmax [1, 6] of the same molecule?
Answer: 15 min

Question: What about the T½ [1, 6] of the same molecule?
Answer: 94.8 min

Question: What about the AUCinf [1, 7] of the same molecule?
Answer: 51.8 ng·h/mL

Question: What about the AUClast [1, 7] of the same molecule?
Answer: 32.1 ng·h/mL

Question: What about the Cmax [1, 7] of the same molecule?
Answer: 10.1 ng/mL

Question: What about the MRTinf [1, 7] of the same molecule?
Answer: 505 min

Question: What about the MRTlast [1, 7] of the same molecule?
Answer: 195 min

Question: What about the Tmax [1, 7] of the same molecule?
Answer: 15 min

Question: What about the T½ [1, 7] of the same molecule?
Answer: 368 min

Question: What about the AUCinf [1, 8] of the same molecule?
Answer: 22.5 ng·h/mL

Question: What about the AUClast [1, 8] of the same molecule?
Answer: 11.0 ng·h/mL

Question: And the Cmax [1, 8]?
Answer: 6.75 ng/mL

Question: And the MRTinf [1, 8]?
Answer: 574 min

Question: What about the MRTlast [1, 8] of the same molecule?
Answer: 121 min

Question: And the Tmax [1, 8]?
Answer: 15 min

Question: What about the T½ [1, 8] of the same molecule?
Answer: 364 min

Question: What about the AUCinf ([1]; PO 10 mg/kg ARI-160, Mean) of the same molecule?
Answer: 32.5 ng·h/mL

Question: What about the AUClast ([1]; PO 10 mg/kg ARI-160, Mean) of the same molecule?
Answer: 18.8 ng·h/mL

Question: And the Cmax ([1]; PO 10 mg/kg ARI-160, Mean)?
Answer: 9.85 ng/mL

Question: And the F. ([1]; PO 10 mg/kg ARI-160, Mean)?
Answer: 0.110%

Question: What about the MRTinf ([1]; PO 10 mg/kg ARI-160, Mean) of the same molecule?
Answer: 406 min

Question: What about the MRTlast ([1]; PO 10 mg/kg ARI-160, Mean) of the same molecule?
Answer: 122 min

Question: And the Tmax ([1]; PO 10 mg/kg ARI-160, Mean)?
Answer: 15 min

Question: And the T½ ([1]; PO 10 mg/kg ARI-160, Mean)?
Answer: 275 min

Question: And the “provision of ARI-143” value ([1]; after administration of ARI-160)?
Answer: provided ARI-143 after oral as well as IV administration

Question: What about the TGI ([2]; study day 6) of the same molecule?
Answer: 0.01%

Question: What about the TGI ([2]; study day 10) of the same molecule?
Answer: 30.95%

Question: And the TGI ([2]; study day 13)?
Answer: 30.58%

Question: What about the TGI ([2]; study day 17) of the same molecule?
Answer: 20.47%

Question: What about the TGI ([2]; study day 20) of the same molecule?
Answer: 32.25%

Question: What about the TGI ([2]; study day 24) of the same molecule?
Answer: 33.19%

Question: And the TGI ([2]; study day 27)?
Answer: 22.24%

Question: What about the TGI ([2]; study day 31) of the same molecule?
Answer: 12.40%
